Experimental findings from the supplement of paper PMC10307832 are described below.

What all share (experiment): relative viability (nuclei count vs DMSO), 5 days (fraction); higher = more cells survive
Compound in the assay “Cediranib + AZD7762”: COc1cc2c(Oc3ccc4[nH]c(C)cc4c3F)ncnc2cc1OCCCN1CCCC1 [Cediranib] + NC(=O)Nc1cc(-c2cccc(F)c2)sc1C(=O)N[C@H]1CCCNC1 [AZD7762] (partner 0.2 µM)
The gist of the method:
(§1)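 Five library-drug doses in √10 steps were combined with a fixed anchor-drug dose, or a single drug was given alone, by pin tool to lung cancer cell lines in 1536-well plates the day after seeding. Nuclei were stained and counted after 5 days. Relative viability is the nuclei count in treated wells over that in vehicle wells, taken as the median of duplicate plates.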

Compound in the assay “Decitabine + Trametinib”: Nc1ncn([C@H]2C[C@H](O)[C@@H](CO)O2)c(=O)n1 [Decitabine] + CC(=O)Nc1cccc(-n2c(=O)n(C3CC3)c(=O)c3c(Nc4ccc(I)cc4F)n(C)c(=O)c(C)c32)c1 [Trametinib] (partner 0.02 µM)
Put shortly:
as §1

Compound in assay [1]: O=C(C[C@H]1NCCC[C@@H]1O)Cn1cnc2cc(Br)c(Cl)cc2c1=O (racemic) [Halofuginone] + CCNC(=O)c1noc(-c2cc(C(C)C)c(O)cc2O)c1-c1ccc(CN2CCOCC2)cc1 [Luminespib] (partner 0.01 µM)
Put shortly:
as §1

Compound in the assay “Cediranib + Linsitinib”: COc1cc2c(Oc3ccc4[nH]c(C)cc4c3F)ncnc2cc1OCCCN1CCCC1 [Cediranib] + C[C@]1(O)C[C@@H](c2nc(-c3ccc4ccc(-c5ccccc5)nc4c3)c3c(N)nccn32)C1 [Linsitinib] (partner 1 µM)
The gist of the method:
as §1

Consider LK-2, for which the relative viability came to 0.463 with Cediranib + AZD7762 (first compound 0.04 µM); 0.275 in the assay with Cediranib + AZD7762 (first compound 0.1265 µM); 0.327 in the assay with Cediranib + AZD7762 (first compound 0.4 µM); 0.284 with Cediranib + AZD7762 (first compound 1.265 µM); 0.319 in the assay with Cediranib + AZD7762 (first compound 4 µM); 0.692 with Decitabine + Trametinib (first compound 0.04 µM). The relative viability with Decitabine + Trametinib (first compound 0.1265 µM) was 0.674; in the assay with Decitabine + Trametinib (first compound 0.4 µM) it was 0.605; in the assay with Decitabine + Trametinib (first compound 1.265 µM), 0.435; with Decitabine + Trametinib (first compound 4 µM), 0.371; in assay [1] (first compound 0.001 µM), 0.152; in assay [1] (first compound 0.003162 µM), 0.147. Moreover, the relative viability in assay [1] (first compound 0.01 µM) came out at 0.181; in assay [1] (first compound 0.03162 µM), 0.205; in assay [1] (first compound 0.1 µM), 0.179; with Cediranib + Linsitinib (first compound 0.04 µM), 0.944; in the assay with Cediranib + Linsitinib (first compound 0.1265 µM) it was 0.492; with Cediranib + Linsitinib (first compound 0.4 µM), 0.651. In addition, the relative viability is 0.548 with Cediranib + Linsitinib (first compound 1.265 µM) and 0.51 in the assay with Cediranib + Linsitinib (first compound 4 µM).

Consider EKVX, for which the relative viability turned out to be 0.731 with Cediranib + AZD7762 (first compound 0.04 µM); 0.609 with Cediranib + AZD7762 (first compound 0.1265 µM); 0.636 in the assay with Cediranib + AZD7762 (first compound 0.4 µM); 0.798 with Cediranib + AZD7762 (first compound 4 µM); 0.254 in the assay with Decitabine + Trametinib (first compound 0.04 µM); 0.25 with Decitabine + Trametinib (first compound 0.1265 µM). In addition, the relative viability turned out to be 0.259 in the assay with Decitabine + Trametinib (first compound 0.4 µM); 0.221 with Decitabine + Trametinib (first compound 1.265 µM); 0.23 in the assay with Decitabine + Trametinib (first compound 4 µM); 0.868 in assay [1] (first compound 0.001 µM); 0.818 in assay [1] (first compound 0.003162 µM); 0.891 in assay [1] (first compound 0.01 µM). Also, the relative viability amounted to 0.871 in assay [1] (first compound 0.03162 µM); 0.937 in assay [1] (first compound 0.1 µM); 1.05 with Cediranib + Linsitinib (first compound 0.04 µM); 1.03 with Cediranib + Linsitinib (first compound 0.1265 µM); 0.889 with Cediranib + Linsitinib (first compound 0.4 µM); 1 with Cediranib + Linsitinib (first compound 1.265 µM). The relative viability with Cediranib + Linsitinib (first compound 4 µM) was determined as 0.86.

Consider NCI-H838, for which the relative viability amounted to 0.978 with Cediranib + AZD7762 (first compound 0.04 µM); 0.934 with Cediranib + AZD7762 (first compound 0.1265 µM); 0.934 with Cediranib + AZD7762 (first compound 0.4 µM); 0.896 with Cediranib + AZD7762 (first compound 1.265 µM); 0.975 in the assay with Cediranib + AZD7762 (first compound 4 µM); 0.476 with Decitabine + Trametinib (first compound 0.04 µM). Further, the relative viability with Decitabine + Trametinib (first compound 0.1265 µM) came out at 0.397; in the assay with Decitabine + Trametinib (first compound 0.4 µM) it was 0.237; with Decitabine + Trametinib (first compound 1.265 µM), 0.283; in the assay with Decitabine + Trametinib (first compound 4 µM), 0.279; in assay [1] (first compound 0.001 µM), 0.366; in assay [1] (first compound 0.003162 µM), 0.257. The relative viability in assay [1] (first compound 0.01 µM) turned out to be 0.335; in assay [1] (first compound 0.03162 µM), 0.349; in assay [1] (first compound 0.1 µM), 0.158; in the assay with Cediranib + Linsitinib (first compound 0.04 µM), 1.06; in the assay with Cediranib + Linsitinib (first compound 0.1265 µM), 1.03; with Cediranib + Linsitinib (first compound 0.4 µM), 0.956. For the same cell line, the relative viability in the assay with Cediranib + Linsitinib (first compound 1.265 µM) was found to be 0.984; with Cediranib + Linsitinib (first compound 4 µM) it was 1.03.

As for NCI-H2085, the relative viability with Cediranib + AZD7762 (first compound 0.04 µM) was 0.966; with Cediranib + AZD7762 (first compound 0.1265 µM) it was 0.987; with Cediranib + AZD7762 (first compound 0.4 µM) it was 0.921; in the assay with Cediranib + AZD7762 (first compound 1.265 µM), 1.11; with Cediranib + AZD7762 (first compound 4 µM), 0.997; with Decitabine + Trametinib (first compound 0.04 µM) it was 0.514. The relative viability with Decitabine + Trametinib (first compound 0.1265 µM) amounted to 0.451; with Decitabine + Trametinib (first compound 0.4 µM) it was 0.394; in the assay with Decitabine + Trametinib (first compound 1.265 µM), 0.364; in the assay with Decitabine + Trametinib (first compound 4 µM) it was 0.308; in assay [1] (first compound 0.001 µM), 0.41; in assay [1] (first compound 0.003162 µM), 0.5. Further, the relative viability in assay [1] (first compound 0.01 µM) amounted to 0.48; in assay [1] (first compound 0.03162 µM) it was 0.489; in assay [1] (first compound 0.1 µM) it was 0.377; in the assay with Cediranib + Linsitinib (first compound 0.04 µM), 1.01; with Cediranib + Linsitinib (first compound 0.1265 µM), 0.941; with Cediranib + Linsitinib (first compound 0.4 µM), 0.898. The relative viability with Cediranib + Linsitinib (first compound 1.265 µM) is 0.872; with Cediranib + Linsitinib (first compound 4 µM), 0.926.
